According to patent publication US20240239801A1, “PYRIMIDO[5,4,D]PYRIMIDINE COMPOUNDS, COMPOSITIONS COMPRISING THEM AND USES THEREOF” (Université de Montréal, priority 2021, published 2024):

What was measured:
CRAF = CRAF (Homo sapiens, UniProt P04049); experiment: CRAF kinase activity assay (ADP-Glo); type: biochemical
Protocol: (§1) Compound preparation: solid samples of each substances in 1dram vials were suspended in DMSO (Fisher Scientific) at a stock concentration of 20 mM. Stocks were kept at −20° C. and protected from light. If solubility of the compound at 20 mM appeared to be an issue, the initial concentration of the DMSO stock was changed to 10 mM or 5 mM.
(§2) In vitro enzymatic reactions were used for evaluating compounds intrinsic activity against BRAF, CRAF and ARAF. For BRAF and CRAF, 0.375 nM of purified GST-tagged kinases (cat #B4062-10UG and cat #R1656-10UG respectively from Millipore Sigma) were incubated with 75 nM of kinase-dead MEK1 substrate (cat #40075; BPS Bioscience) in the presence of 10 μM of Ultrapure ATP (cat #V9102; Promega; part V915A) with and without the test compound in a buffer containing 50 mM HEPES pH 7.5, 10 mM MgCl2, 1 mM EDTA, 0.01% Brij-35 and 2 mM DTT. Separate reactions were performed with the MEK1 substrate and ATP as a blank control. ARAF, kinase reactions were rigorously the same with the exception that kinase concentration was raised to 3.75 nM (cat #1768-0000-1; Reaction Biology).
(§3) For compound treatment, 5 μL/well of test substance solution are placed in a 384-well proxyplate (Perkin Elmer) and mixed with 2× concentrated kinase reactions. The dilution series is selected so that nine concentrations cover a range from 100 nM to 0.01 nM. […] The final concentration of DMSO in the assay is set at 0.05%.
(§4) BRAF and CRAF kinase reactions were carried out for a total of 2 hours at 30° C. and then stopped by ½ dilution in ADP-Glo Reagent (cat #V9102; Promega; part V912C). Reactions were then incubated for 1 h at room temperature before addition of one volume of Kinase Detection Reagent (cat #V9102; Promega; part V917A). Plates were then equilibrated at room temperature for 30 minutes before detection of luminescence on a Synergy Neo2 plate reader (Biotek). The effect of each compound dilution on BRAF and CRAF kinase activity was expressed as % inhibition and calculated as follows. First, the internal 100% inhibition control (average of luminescence in kinase reactions comprising kinase dead MEK1 substrate alone) was subtracted from each data point. The average of DMSO (vehicle) controls (set as 0% inhibition) was established and used to calculate % inhibition:
(§5) IC50 values were obtained by plotting the kinase inhibition values and fitting the dose-activity curves using a log(agonist) versus response−variable slope (four parameters) function using either GraphPadPrism (V7.0) or Dotmatics Screening Ultra platform. Standards included in the ARAF kinase assay were Belvarafenib (MedChem Express cat #HY-109080; CAS #1446113-23-0), LXH254 (MedChem Express cat #HY-112089; CAS #1800398-38-2) and BGB283 (cat #HY-18957; CAS #1446090-79-4).

BRAF = target: T1, BRAF (Homo sapiens, UniProt P15056); experiment: BRAF kinase activity assay (ADP-Glo); type: biochemical
T1 construct: GST; purchased Millipore Sigma B4062-10UG
Protocol: as §1, §2, §3, §4, §5

HCT116 pERK = experiment: Phospho-ERK inhibition, AlphaLISA SureFire Ultra p-ERK 1/2; type: cell-based, human; conditions: for HCT116 (Ymin %): lowest value of the pERK IC50 curve
Procedure, shortened: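 Cells plated in RPMI-1640 with 5% FBS, held overnight, then exposed 1 h to ten-point compound dilutions (top 30 or 10 μM down to 0.33 nM; 0.5% DMSO). Lysates read for p-ERK1/2 (Thr202/Tyr204) by AlphaLISA; % inhibition relative to DMSO after subtracting a 1 μM trametinib background; IC50 from four-parameter fit.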

[1] = Homo sapiens, HCT-116, Table 3, 1 h treatment

T1 sequence (P15056 whole entry): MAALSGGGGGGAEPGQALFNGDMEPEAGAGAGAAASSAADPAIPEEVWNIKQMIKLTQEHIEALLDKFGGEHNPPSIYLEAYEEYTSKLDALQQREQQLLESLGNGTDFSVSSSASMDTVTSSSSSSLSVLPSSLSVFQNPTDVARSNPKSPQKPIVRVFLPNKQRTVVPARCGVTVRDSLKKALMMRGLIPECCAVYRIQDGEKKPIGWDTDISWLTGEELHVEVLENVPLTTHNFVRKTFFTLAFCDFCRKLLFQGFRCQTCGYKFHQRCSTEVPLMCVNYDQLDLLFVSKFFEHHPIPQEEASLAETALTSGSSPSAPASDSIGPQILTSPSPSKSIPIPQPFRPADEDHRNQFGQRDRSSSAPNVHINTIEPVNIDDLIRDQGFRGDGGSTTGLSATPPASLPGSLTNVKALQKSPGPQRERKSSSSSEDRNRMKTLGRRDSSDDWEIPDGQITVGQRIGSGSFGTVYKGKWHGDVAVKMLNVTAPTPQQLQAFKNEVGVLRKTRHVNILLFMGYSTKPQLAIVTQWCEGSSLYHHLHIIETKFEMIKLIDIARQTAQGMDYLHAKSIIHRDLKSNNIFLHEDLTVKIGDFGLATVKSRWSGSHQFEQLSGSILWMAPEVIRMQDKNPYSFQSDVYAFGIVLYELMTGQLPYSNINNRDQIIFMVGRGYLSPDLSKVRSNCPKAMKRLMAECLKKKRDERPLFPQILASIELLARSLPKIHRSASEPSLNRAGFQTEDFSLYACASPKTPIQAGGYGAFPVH
Sequence of CRAF (P04049 whole entry): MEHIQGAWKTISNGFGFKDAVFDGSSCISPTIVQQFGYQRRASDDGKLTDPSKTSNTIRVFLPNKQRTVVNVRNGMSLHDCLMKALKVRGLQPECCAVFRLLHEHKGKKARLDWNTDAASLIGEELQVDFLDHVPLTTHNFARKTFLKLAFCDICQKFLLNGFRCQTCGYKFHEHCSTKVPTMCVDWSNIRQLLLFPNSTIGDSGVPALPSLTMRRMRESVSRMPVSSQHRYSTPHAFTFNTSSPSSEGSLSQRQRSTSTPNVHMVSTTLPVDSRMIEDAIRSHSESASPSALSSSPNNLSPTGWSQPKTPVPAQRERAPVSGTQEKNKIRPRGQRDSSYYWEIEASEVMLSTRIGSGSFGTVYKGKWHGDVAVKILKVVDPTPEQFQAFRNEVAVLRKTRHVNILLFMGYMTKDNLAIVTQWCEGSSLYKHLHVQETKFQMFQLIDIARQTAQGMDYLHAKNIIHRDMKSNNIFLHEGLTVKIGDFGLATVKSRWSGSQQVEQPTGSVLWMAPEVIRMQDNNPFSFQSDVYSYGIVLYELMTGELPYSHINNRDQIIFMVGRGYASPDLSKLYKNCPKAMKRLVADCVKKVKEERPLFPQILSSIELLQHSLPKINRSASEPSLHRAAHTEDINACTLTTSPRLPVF

| SMILES | IC50 (CRAF; Table 3) | IC50 (BRAF; Table 3) | IC50 (HCT116 pERK; Table 3, 1 h treatment) | HCT116 (Ymin %) (HCT116 pERK; Table 3) | other results |
| --- | --- | --- | --- | --- | --- |
| COCCOc1cccc2c1nnn2-c1ncc2ncnc(Nc3c(F)ccc(NS(=O)(=O)c4cccc(Cl)c4Cl)c3F)c2n1 [Example 137] | < 10 nM | 1 to 10 nM |  |  | IC50 (HCT116 pERK; [1]): < 500 nM |
| O=S(=O)(Nc1ccc(F)c(Nc2ncnc3cnc(-n4nnc5c(N6CCN(CCO)CC6)cccc54)nc23)c1F)c1cccc(Cl)c1Cl [Example 139] | < 10 nM | < 1 nM | < 500 nM | 2% |  |
| CCC1(O)CCN(c2cccc3c2nnn3-c2ncc3ncnc(Nc4c(F)ccc(NS(=O)(=O)c5cccc(Cl)c5Cl)c4F)c3n2)CC1 [Example 136] | < 10 nM | 1 to 10 nM | < 500 nM | 19% |  |
| Cc1c(F)cccc1S(=O)(=O)Nc1ccc(F)c(Nc2ncnc3cnc(-n4cc(S(=O)(=O)N5CCN(C)CC5)c5ccccc54)nc23)c1F [Example 96] | < 10 nM | < 1 nM |  |  | IC50 (HCT116 pERK; [1]): < 500 nM |
| Cc1c(F)cccc1S(=O)(=O)Nc1ccc(F)c(Nc2ncnc3cnc(-n4nc(C(=O)N5CCOCC5)c5ccccc54)nc23)c1F [Example 110] | 10 to 50 nM | < 1 nM | < 500 nM | −3.7% |  |
| CCC1(O)CCN(c2cccc3c2ncn3-c2ncc3ncnc(Nc4c(F)ccc(NS(=O)(=O)c5cccc(Cl)c5C(F)(F)F)c4F)c3n2)CC1 [Example 158] | < 10 nM | 1 to 10 nM | < 500 nM | −1% |  |
| O=S(=O)(Nc1ccc(F)c(Nc2ncnc3cnc(-n4cc(S(=O)(=O)C5CCOCC5)c5ccccc54)nc23)c1F)c1cccc(Cl)c1Cl [Example 142] | < 10 nM | < 1 nM | < 500 nM | −15% |  |
| Cc1c(Cl)cccc1S(=O)(=O)Nc1ccc(F)c(Nc2ncnc3cnc(-n4nnc5ccccc54)nc23)c1F [Example 124] | < 10 nM | 1 to 10 nM | 1000 to 10000 nM | −9% |  |
| O=S(=O)(Nc1ccc(F)c(Nc2ncnc3cnc(-n4cnc5c(N6CC(CCO)C6)cccc54)nc23)c1F)c1cccc(Cl)c1Cl [Example 147] | 10 to 50 nM | 1 to 10 nM | < 500 nM | −9% |  |
| Cc1c(Cl)cccc1S(=O)(=O)Nc1ccc(F)c(Nc2ncnc3cnc(-n4cnc5ccccc54)nc23)c1F [Example 127] | < 10 nM | 1 to 10 nM | < 500 nM | 0% |  |
| Cc1c(F)cccc1S(=O)(=O)Nc1ccc(F)c(Nc2ncnc3cnc(-n4nc(C(=O)N(C)CCO)c5ccccc54)nc23)c1F [Example 107] | 10 to 50 nM | < 1 nM | 500 to 1000 nM | −5.2% |  |
| Cc1c(F)cccc1S(=O)(=O)Nc1ccc(F)c(Nc2ncnc3cnc(-n4nnc5c(N)cccc54)nc23)c1F [Example 93] | < 10 nM | 1 to 10 nM | < 500 nM | 1.3% |  |
| O=S(=O)(Nc1cc(F)c(F)c(Nc2ncnc3cnc(-n4nnc5ccccc54)nc23)c1F)c1cccc(Cl)c1Cl [Example 161] |  |  |  |  | IC50 (CRAF; CRAF biochemical kinase assay): < 10 nM; IC50 (BRAF; BRAF biochemical kinase assay): 1 to 10 nM; IC50 (HCT116 pERK; HCT116 cells, pERK): 1000 to 10000 nM; HCT116 pERK % Ymin (lowest value of the IC50 curve) (HCT116 pERK; HCT116 cells, value in brackets, Ymin above −20% = minimal or no paradoxical induction): −2.7% |
| COc1ccc(S(=O)(=O)Nc2ccc(F)c(Nc3ncnc4cnc(SC)nc34)c2F)c(C)c1F [Example 91] |  |  |  |  | IC50 (CRAF; Table 2): 10 to 50 nM; IC50 (BRAF; Table 2): > 10 nM; IC50 (HCT116 pERK; Table 2, 1 h treatment): 1000 to 10000 nM; HCT116 (Ymin %) (HCT116 pERK; Table 2): −8% |
| CN(C)C1CCN(c2cccc3c2ncn3-c2ncc3ncnc(Nc4c(F)ccc(NS(=O)(=O)c5cccc(Cl)c5Cl)c4F)c3n2)CC1 [Example 145] | < 10 nM | < 1 nM | < 500 nM | −8% |  |
| COc1ccc(S(=O)(=O)Nc2ccc(F)c(Nc3ncnc4cnc(-n5nnc6ccccc65)nc34)c2F)c(C)c1F [Example 118] | 10 to 50 nM | > 10 nM | 1000 to 10000 nM | −14% |  |
| Cc1c(F)cccc1S(=O)(=O)Nc1ccc(F)c(Nc2ncnc3cnc(-n4cc(C(=O)N5CCN(C)CC5)c5ccccc54)nc23)c1F [Example 99] | 10 to 50 nM | < 1 nM |  | (−3.6) % |  |
| CC1(O)CCN(c2cccc3c2ncn3-c2ncc3ncnc(Nc4c(F)ccc(NS(=O)(=O)c5cccc(Cl)c5Cl)c4F)c3n2)CC1 [Example 130] | < 10 nM | 1 to 10 nM | < 500 nM | −13% |  |
| COc1ccc(S(=O)(=O)Nc2ccc(F)c(Nc3ncnc4cnc(-n5cnc6c(N)cccc65)nc34)c2F)c(C)c1F [Example 111] | < 10 nM | 1 to 10 nM | < 500 nM | −8.1% |  |
| Cc1c(S(=O)(=O)Nc2ccc(F)c(Nc3ncnc4cnc(-n5cnc6ccccc65)nc34)c2F)ccc(F)c1F [Example 154] | > 50 nM | 1 to 10 nM | 500 to 1000 nM | 3% |  |
| COc1ccc(S(=O)(=O)Nc2ccc(F)c(Nc3ncnc4cnc(-n5cnc6ccccc65)nc34)c2F)c(C)c1Cl [Example 115] | 10 to 50 nM | 1 to 10 nM | < 500 nM | 2% |  |
| CCc1ccccc1S(=O)(=O)Nc1ccc(F)c(Nc2ncnc3cnc(-n4cnc5c(N6CCC(O)(CC)CC6)cccc54)nc23)c1F [Example 149] | 10 to 50 nM | > 10 nM | < 500 nM | 4% |  |
| O=S(=O)(Nc1ccc(F)c(Nc2ncnc3cnc(-n4nnc5c(N6CCC7(CCCO7)CC6)cccc54)nc23)c1F)c1cccc(Cl)c1Cl [Example 138] | 10 to 50 nM | > 10 nM | < 500 nM | 1% |  |
| COC1CCN(c2cccc3c2ncn3-c2ncc3ncnc(Nc4c(F)ccc(NS(=O)(=O)c5cccc(Cl)c5Cl)c4F)c3n2)CC1 [Example 131] | 10 to 50 nM | 1 to 10 nM | < 500 nM | −4% |  |
| Cc1c(F)cccc1S(=O)(=O)Nc1ccc(F)c(Nc2ncnc3cnc(-n4nnc5ccccc54)nc23)c1F [Example 121] | < 10 nM | 1 to 10 nM | 1000 to 10000 nM | −4% |  |
| Cc1c(F)cccc1S(=O)(=O)Nc1ccc(F)c(Nc2ncnc3cnc(-n4cc(C(=O)N(C)C)c5ccccc54)nc23)c1F [Example 97] | 10 to 50 nM | < 1 nM | < 500 nM | −6.3% |  |
